Tests used:
Assay type in all cases: biochemical
hemoglobin [1] = target: T1, hemoglobin (Homo sapiens, UniProt P68871+P69905); test: Resonance Raman spectroscopy: percentage of high oxygen affinity "R" state of oxygenated hemoglobin treated with compounds; settings: varying mole ratio to Hb tetramer, 532 nm excitation, oxygen atmosphere
Description: In order to evaluate the effect of the compound of Formula I on stabilizing the oxygenated hemoglobin in the low oxygen affinity “T” state, compounds including 2,3-bisphosphoglycerate (group A0), Z-butylidenephthalide (group A1), Z-ligustilide (group A2), senkyunolide A (group A3), senkyunolide H (group A4) and senkyunolide I (group A5) are mixed with hemoglobin as a function of their mole ratio to hemoglobin, followed by the resonance Raman spectroscopy measurements at 532 nm excitation wavelength under the oxygen atmosphere. The percentages of the high oxygen affinity “R” state for hemoglobin treated with 2,3-bisphosphoglycerate (shown in FIG. 2a, as reference) and various phthalide phyto-compounds (shown in FIGS. 2b to 2f) are analyzed from the resonance Raman spectroscopy measurements. In more specific, the percentage of high oxygen affinity “R” state for each treated hemoglobin was obtained by fitting a simulated spectrum comprised of adjustable weighing factors of the T and R states of pure hemoglobin to the obtained resonance Raman spectrum of treated hemoglobin. […]

[2] = target: fetal hemoglobin (α2γ2, HbF) (Homo sapiens, UniProt P69905); test: Resonance Raman spectroscopy: percentage of "R" state of oxygenated fetal hemoglobin treated with compounds; settings: oxygen atmosphere
Sequence of fetal hemoglobin (α2γ2, HbF) (P69905 2-142 limits assumed): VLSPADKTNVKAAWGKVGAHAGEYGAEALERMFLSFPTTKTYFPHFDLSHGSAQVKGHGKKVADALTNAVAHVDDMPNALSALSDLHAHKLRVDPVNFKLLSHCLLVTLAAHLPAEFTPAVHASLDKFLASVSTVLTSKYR
Sequence of fetal hemoglobin (α2γ2, HbF) (P69892 2-147 partner limits assumed): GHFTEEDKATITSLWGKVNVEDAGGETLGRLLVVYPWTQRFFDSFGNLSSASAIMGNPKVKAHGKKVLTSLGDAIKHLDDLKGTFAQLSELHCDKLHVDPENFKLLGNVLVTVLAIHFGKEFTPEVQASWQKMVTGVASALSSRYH
Description: In order to evaluate the effect of the compound of phthalides on stabilizing the oxygenated hemoglobin variants in the low oxygen affinity “T” state, compounds including 2,3-bisphosphoglycerate (group A0), Z-butylidenephthalide (group A1), Z-ligustilide (group A2), senkyunolide A (group A3), senkyunolide H (group A4) and senkyunolide I (group A5) are mixed with fetal hemoglobin (α2γ2, HbF) as a representative hemoglobin variant which is also a potential hemoglobin-based blood substitute, followed by the resonance Raman spectroscopy measurements under the oxygen atmosphere. The percentages of the high oxygen affinity “R” state of fetal hemoglobin treated with 2,3-bisphosphoglycerate (shown in FIG. 3a) and various phthalide phyto-compounds (shown in FIGS. 3b to 3f) are also analyzed from the resonance Raman spectroscopy measurements, following the same spectral analysis procedures as that of normal hemoglobin.

hemoglobin [3] = target: T1, hemoglobin; test: Oxygen equilibrium curve (OEC) measurement, P50 of treated hemoglobin
Description: FIG. 4a is a diagram illustrating the oxygen equilibrium curve (OEC) of hemoglobin treated with 2,3-bisphosphoglycerate with a molar ratio to Hb of 1.0 (dash black curve). The OEC of pure hemoglobin (solid black curve) is also shown as the reference. The P50 value derived from the OEC for pure hemoglobin and for Hb treated with 2,3-bisphosphoglycerate are 12.6 and 16.4±1 mmHg, respectively.
To evaluate the effect of the compound of phthalides on reducing the oxygen affinity and thus promoting the oxygen release, the oxygen equilibrium curves (OEC) for hemoglobin treated with 2,3-bisphosphoglycerate (solid black curve in FIG. 4a) and Z-butylidenephthalide (Z-butylidenephthalide-to-Hb molar ratio of: 0.2, solid black curve; 0.5, dash-dot black curve; 0.8, dot black curve in FIG. 4b), are measured in comparison with that of pure hemoglobin (dash black curves in FIGS. 4a and 4b).
From the oxygen equilibrium measurements, the P50 values of hemoglobin treated compounds, including Z-butylidenephthalide, Z-ligustilide and senkyunolide A are obtained, as shown in FIGS. 5a to 5c. P50, defined as the oxygen partial pressure required for 50% of Hb to become oxygenated or deoxygenated, is a direct measure of oxygen affinity for hemoglobin, which increases with decreasing oxygen affinity.

[4] = effector-to-Hb mole ratio of 0.8 (Level II), pure hemoglobin 12.6±1

T1 sequence (P69905 2-142 limits assumed): as the sequence (P69905 2-142 limits assumed) above
T1 sequence (P68871 2-147 limits assumed): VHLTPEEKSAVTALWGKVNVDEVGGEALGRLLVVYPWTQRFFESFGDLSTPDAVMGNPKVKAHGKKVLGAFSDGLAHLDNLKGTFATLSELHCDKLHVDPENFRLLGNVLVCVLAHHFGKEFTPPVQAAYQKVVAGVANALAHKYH

| SMILES | "R" state suppression efficiency (hemoglobin [1]) | effect on relative ratio of high oxygen affinity "R" state of fetal hemoglobin [2] | P50 of hemoglobin treated with compound (hemoglobin [3]; molar ratio to Hb of 1.0, pure hemoglobin 12.6) [mmHg] | P50 of hemoglobin treated with compound (hemoglobin [3]; [4]) [mmHg] |
| --- | --- | --- | --- | --- |
| O=C(O)C(COP(=O)(O)O)OP(=O)(O)O (centres unmarked) [2,3-bisphosphoglycerate, reference compound] | about 20% | no effect | 16.4±1 | – |
| CCC/C=C1\OC(=O)c2ccccc21 [Z-butylidenephthalide] | – | can stabilize the low oxygen affinity “T” state | – | 17.4 |
| CCC/C=C1\OC(=O)C2=C1CCC=C2 [Z-ligustilide] | – | can stabilize the low oxygen affinity “T” state | – | 15.9 |
| CCCC[C@@H]1OC(=O)C2=C1CCC=C2 [senkyunolide A] | – | can stabilize the low oxygen affinity “T” state | – | – |
| CCC/C=C1\OC(=O)C2=C1CC[C@@H](O)[C@H]2O [senkyunolide H] | – | can stabilize the low oxygen affinity “T” state | – | – |
| CCC/C=C1\OC(=O)C2=C1CC[C@@H](O)[C@@H]2O [senkyunolide I] | – | can stabilize the low oxygen affinity “T” state | – | 15.2±1 |

Reference: patent publication US10047063B2, “Method for improving the oxygen-releasing ability of hemoglobin to organs or peripheral tissues in human bodies and a medication thereof” (NATIONAL SUN YAT-SEN UNIVERSITY, priority 2014, dated 2018)
